Experiment [1] addresses T1, Tyrosine-protein kinase JAK2 (Homo sapiens, UniProt O60674). Nature of the experiment: Inhibition of JAK2 in human HEL 92.1.7 cells assessed as reduction in STAT5 phosphorylation after 2 hrs by Western blot analysis. Format: cell-based. For orientation: A western blot detects proteins with antibodies after separation by electrophoresis.
The target in experiment [2] is T2, Tyrosine-protein kinase JAK1 (Homo sapiens, UniProt P23458). Kind of experiment: Inhibition of JAK1 in human NCI-H1975 cells assessed as reduction in STAT3 phosphorylation at 0.003 to 3 uM after 2 hrs by Western blot analysis. Format: cell-based.
The target of experiment [3] is T1, Tyrosine-protein kinase JAK2. Kind of experiment: Inhibition of N-terminal GST-fused recombinant JAK2 (831 to 1132 residues) (unknown origin) expressed in insect cells using 5FAM-GEEPLYWSFPAKKK-NH2 as substrate by microfluidic capillary electrophoresis method.
The species named for another experiment is Homo sapiens. Kind of experiment: Selectivity ratio of IC50 for N-terminal GST-fused recombinant JAK2 (831 to 1132 residues) (unknown origin) to N-terminal GST-fused human recombinant JAK1 (866 to 1154 residues).
The target in experiment [4] is T2, Tyrosine-protein kinase JAK1. Nature of the experiment: Inhibition of N-terminal GST-fused human recombinant JAK1 (866 to 1154 residues) expressed in insect cells using FITC-C6-KKHTDDGYMPMSPGVA-NH2 as substrate by microfluidic capillary electrophoresis method.
The target of experiment [5] is T3, Tyrosine-protein kinase JAK3 (Homo sapiens, UniProt P52333).
T3 sequence (P52333 whole entry): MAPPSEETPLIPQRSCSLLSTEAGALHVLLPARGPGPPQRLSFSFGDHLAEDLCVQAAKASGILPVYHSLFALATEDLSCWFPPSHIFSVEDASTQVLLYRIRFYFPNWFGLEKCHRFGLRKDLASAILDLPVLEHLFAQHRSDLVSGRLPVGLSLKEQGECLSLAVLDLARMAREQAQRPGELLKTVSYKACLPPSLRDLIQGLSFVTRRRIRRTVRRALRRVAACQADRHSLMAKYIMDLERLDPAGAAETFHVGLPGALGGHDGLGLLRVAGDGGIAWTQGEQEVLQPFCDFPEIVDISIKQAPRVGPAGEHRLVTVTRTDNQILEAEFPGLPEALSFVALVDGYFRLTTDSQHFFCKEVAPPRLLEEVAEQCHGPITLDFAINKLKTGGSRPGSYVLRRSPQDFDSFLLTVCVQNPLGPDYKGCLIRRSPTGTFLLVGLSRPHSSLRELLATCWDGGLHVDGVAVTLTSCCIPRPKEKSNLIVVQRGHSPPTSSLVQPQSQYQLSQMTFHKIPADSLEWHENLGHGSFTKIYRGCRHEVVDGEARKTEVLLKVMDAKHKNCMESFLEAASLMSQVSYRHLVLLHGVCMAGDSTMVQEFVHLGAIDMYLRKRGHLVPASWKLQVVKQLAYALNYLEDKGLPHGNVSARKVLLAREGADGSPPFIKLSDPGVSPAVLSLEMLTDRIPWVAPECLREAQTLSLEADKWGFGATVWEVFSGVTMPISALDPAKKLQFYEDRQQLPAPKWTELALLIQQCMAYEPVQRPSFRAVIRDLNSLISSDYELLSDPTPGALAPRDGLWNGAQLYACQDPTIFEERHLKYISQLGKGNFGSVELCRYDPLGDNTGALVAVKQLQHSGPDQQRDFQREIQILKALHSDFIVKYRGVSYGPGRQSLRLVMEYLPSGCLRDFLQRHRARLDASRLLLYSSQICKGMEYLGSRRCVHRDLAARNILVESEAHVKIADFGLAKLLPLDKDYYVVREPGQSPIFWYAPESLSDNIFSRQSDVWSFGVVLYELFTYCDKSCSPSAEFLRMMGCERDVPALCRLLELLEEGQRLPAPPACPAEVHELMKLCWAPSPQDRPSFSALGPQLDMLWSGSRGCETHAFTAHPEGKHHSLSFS
Kind of experiment: Inhibition of N-terminal GST-fused recombinant JAK3 (781 to 1124 residues) (unknown origin) expressed in insect cells using 5FAM-GEEPLYWSFPAKKK-NH2 as substrate by microfluidic capillary electrophoresis method.

Experiment [6] concerns the target T2, Tyrosine-protein kinase JAK1. Nature of the experiment: Inhibition of JAK1 in human NCI-H1975 cells assessed as reduction in STAT3 phosphorylation after 2 hrs. Format: cell-based.
For experiment [7], the target named is Cyclin-dependent kinase 2/cyclin E1 (Homo sapiens, UniProt P24941). Nature of the experiment: Inhibition of N-terminal 6His-tagged human recombinant full length CDK2 (1 to 304 residues)/Cyclin E1 (1 to 410 residues) expressed in insect cells using FL-Ahx-QSPKKG-CONH2 as substrate by microfluidic capillary electrophoresis method.
The next experiment has as its target Aurora kinase B (Homo sapiens, UniProt Q96GD4). Nature of the experiment: Inhibition of GST-INCENP activated N-terminal 6His-tagged human recombinant full length Aurora B (1 to 344 residues) expressed in baculovirus expression system using 5FAM-LRRASLG as substrate by microfluidic capillary electrophoresis method.
The target of experiment [8] is Non-receptor tyrosine-protein kinase TYK2 (Homo sapiens, UniProt P29597). Nature of the experiment: Inhibition of N-terminal 6His-tagged human recombinant Tyk2.

Molecules are shown by their SMILES. pIC50: −log10 of the molar value. The source made the active and inactive calls. No cut-off for these calls is given here.

T2 sequence (P23458 whole entry, the tested form may be a part): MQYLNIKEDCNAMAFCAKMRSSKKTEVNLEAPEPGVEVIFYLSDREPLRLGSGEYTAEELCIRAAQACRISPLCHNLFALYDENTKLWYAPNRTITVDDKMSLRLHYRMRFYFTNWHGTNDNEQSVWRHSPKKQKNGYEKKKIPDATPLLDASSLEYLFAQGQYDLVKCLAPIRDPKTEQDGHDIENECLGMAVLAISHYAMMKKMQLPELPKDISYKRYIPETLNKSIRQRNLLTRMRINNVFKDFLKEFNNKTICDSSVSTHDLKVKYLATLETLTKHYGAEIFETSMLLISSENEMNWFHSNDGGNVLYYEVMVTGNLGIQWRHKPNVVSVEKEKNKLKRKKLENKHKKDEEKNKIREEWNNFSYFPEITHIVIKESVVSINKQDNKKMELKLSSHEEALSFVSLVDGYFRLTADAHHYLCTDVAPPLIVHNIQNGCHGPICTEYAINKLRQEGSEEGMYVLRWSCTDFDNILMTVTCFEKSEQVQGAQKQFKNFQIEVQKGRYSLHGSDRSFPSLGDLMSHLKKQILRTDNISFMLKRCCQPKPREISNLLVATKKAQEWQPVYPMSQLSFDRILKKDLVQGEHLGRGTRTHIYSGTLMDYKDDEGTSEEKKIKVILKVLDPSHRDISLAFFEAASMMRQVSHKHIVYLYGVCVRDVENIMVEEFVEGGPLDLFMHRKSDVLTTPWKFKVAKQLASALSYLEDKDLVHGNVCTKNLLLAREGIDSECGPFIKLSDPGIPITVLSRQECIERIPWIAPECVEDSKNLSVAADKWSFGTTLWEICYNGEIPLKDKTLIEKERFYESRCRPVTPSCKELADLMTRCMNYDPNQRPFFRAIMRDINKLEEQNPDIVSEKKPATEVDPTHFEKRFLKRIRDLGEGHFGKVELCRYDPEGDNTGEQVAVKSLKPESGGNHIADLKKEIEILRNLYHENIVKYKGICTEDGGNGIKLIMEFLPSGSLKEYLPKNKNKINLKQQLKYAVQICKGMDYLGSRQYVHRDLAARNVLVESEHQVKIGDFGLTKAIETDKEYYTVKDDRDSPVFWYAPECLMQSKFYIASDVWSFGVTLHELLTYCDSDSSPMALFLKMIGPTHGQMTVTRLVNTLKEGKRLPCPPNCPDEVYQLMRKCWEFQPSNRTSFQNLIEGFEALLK
T1 sequence (O60674 whole entry): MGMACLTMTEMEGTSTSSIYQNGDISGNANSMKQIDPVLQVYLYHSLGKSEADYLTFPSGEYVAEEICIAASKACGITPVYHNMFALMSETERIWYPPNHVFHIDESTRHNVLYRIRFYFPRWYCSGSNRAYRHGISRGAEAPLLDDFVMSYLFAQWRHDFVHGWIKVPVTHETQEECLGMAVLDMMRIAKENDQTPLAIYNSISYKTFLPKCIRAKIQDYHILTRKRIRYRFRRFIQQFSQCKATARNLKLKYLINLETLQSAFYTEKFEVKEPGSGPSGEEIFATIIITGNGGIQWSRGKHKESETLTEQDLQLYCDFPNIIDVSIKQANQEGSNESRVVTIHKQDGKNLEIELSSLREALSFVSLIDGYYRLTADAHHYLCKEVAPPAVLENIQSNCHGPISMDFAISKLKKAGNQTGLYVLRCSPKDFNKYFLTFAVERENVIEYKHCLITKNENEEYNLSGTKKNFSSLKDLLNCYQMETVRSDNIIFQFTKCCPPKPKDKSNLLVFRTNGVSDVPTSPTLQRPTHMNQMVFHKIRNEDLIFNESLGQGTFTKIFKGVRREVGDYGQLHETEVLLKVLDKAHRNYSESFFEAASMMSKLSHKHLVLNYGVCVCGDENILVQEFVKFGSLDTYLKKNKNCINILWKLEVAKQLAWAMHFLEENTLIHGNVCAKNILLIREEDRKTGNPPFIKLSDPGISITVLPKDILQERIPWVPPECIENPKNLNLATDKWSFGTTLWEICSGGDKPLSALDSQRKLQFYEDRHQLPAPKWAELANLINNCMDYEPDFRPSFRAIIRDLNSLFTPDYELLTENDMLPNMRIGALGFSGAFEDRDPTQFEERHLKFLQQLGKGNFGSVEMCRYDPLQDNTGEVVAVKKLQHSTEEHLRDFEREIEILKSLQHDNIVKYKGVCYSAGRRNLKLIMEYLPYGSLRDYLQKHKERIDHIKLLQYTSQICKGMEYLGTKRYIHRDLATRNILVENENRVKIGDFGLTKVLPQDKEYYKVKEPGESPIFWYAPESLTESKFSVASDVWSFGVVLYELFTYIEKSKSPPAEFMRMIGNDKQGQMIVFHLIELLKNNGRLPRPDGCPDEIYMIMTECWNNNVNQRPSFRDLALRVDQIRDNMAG
Non-receptor tyrosine-protein kinase TYK2, sequence (P29597 whole entry): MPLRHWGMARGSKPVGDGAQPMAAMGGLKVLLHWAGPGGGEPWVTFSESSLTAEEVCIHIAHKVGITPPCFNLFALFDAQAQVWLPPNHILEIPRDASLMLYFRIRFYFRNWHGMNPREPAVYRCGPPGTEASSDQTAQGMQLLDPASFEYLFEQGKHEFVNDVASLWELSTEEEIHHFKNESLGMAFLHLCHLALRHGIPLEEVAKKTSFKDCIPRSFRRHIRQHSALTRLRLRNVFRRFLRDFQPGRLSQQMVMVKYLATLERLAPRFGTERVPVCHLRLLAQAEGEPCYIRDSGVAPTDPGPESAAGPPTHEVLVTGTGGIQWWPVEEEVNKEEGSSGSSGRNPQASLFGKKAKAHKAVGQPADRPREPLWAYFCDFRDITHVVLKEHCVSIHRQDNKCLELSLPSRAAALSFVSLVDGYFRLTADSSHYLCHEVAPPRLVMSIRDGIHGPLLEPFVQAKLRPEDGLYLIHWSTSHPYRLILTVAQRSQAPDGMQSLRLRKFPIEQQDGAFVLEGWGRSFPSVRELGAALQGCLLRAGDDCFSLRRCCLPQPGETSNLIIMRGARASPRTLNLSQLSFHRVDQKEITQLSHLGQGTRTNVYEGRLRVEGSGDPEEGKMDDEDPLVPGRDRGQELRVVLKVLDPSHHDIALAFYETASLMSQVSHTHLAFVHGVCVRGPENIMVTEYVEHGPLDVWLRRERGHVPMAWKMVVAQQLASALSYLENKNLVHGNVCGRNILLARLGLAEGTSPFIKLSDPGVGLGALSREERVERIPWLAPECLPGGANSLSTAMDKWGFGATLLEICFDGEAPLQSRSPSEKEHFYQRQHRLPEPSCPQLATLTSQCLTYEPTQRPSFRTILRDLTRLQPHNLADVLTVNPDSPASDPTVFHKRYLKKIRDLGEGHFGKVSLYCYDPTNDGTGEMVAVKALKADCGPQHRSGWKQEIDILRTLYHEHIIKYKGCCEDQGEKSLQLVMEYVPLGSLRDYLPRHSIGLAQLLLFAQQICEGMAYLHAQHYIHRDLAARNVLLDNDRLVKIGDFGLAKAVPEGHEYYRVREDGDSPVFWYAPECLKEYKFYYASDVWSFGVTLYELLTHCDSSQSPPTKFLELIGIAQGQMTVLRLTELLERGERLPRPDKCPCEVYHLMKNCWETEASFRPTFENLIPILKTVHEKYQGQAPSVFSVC
Aurora kinase B, sequence (Q96GD4 whole entry, the tested form may be a part): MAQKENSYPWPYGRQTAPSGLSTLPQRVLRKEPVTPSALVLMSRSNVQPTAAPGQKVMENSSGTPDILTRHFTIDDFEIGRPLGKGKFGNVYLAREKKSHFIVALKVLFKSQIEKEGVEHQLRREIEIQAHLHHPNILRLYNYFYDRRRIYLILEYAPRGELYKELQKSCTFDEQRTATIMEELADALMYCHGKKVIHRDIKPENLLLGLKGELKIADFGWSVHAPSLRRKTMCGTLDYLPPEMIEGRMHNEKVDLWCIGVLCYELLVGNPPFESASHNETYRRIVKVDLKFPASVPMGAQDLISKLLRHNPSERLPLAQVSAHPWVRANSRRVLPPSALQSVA

Take `Cc1cc(Nc2nc(N[C@@H](C)c3ncc(F)cn3)ncc2Cl)[nH]n1`: the inhibition result in experiment [1] and in experiment [2] was “Active” throughout.

A word on the pIC50: it is −log10 of the IC50, conventionally taken in molar units. Take `CN1CCC(CNc2c(Cl)cnc3[nH]c(-c4cccc(F)c4)nc23)CC1`: the pIC50 in experiment [3] was 4.79; in experiment [4] it was 6.08; in [5], less than 4.52. In the experiment filed under Homo sapiens, the Ratio IC50 was 19.

For `COc1ccc(-c2nc3c(NCC4CCNC4)c(Cl)cnc3[nH]2)cc1` (stereo not given), the pIC50 is 4.86 in experiment [3], 6.70 in experiment [4] and less than 4.66 in experiment [5]. In addition, the Ratio IC50 in the experiment listed under Homo sapiens amounted to 70.

`COc1ccc(-c2nc3c(NCC4CCN(C)CC4)c(Cl)cnc3[nH]2)cc1OC`: the values for the pIC50 in experiment [3], in experiment [4] and in [5] were 5.00, 7.14 and less than 4.52, respectively. Moreover, in the experiment filed under Homo sapiens, the Ratio IC50 was 137.

`COc1ccc(F)c(-c2nc3c(NCC4CCN(C)CC4)c(Cl)cnc3[nH]2)c1`: the pIC50 in experiment [3] is less than 4.52; in experiment [4], 6.56; in experiment [5], less than 4.52. Also, in the experiment filed under Homo sapiens, the Ratio IC50 was greater than 109.

For `COc1ccc(-c2nc3c(NCC4CCN(C)CC4)c(Br)cnc3[nH]2)cc1`, the results for the pIC50 in [4] and in experiment [5] were 6.75 and 4.72, respectively.

On to `COc1ccc(-c2nc3c(NCC4CCNCC4)c(Cl)cnc3[nH]2)c(C)c1`, for which the pIC50 in [3] was 5.54; in experiment [6], 7.43; in experiment [4], 8.05; in experiment [5] it was 5.81. For the same molecule, the Ratio IC50 in the experiment filed under Homo sapiens was 314.

Take `COc1ccc(-c2nc3c(OCC4CCNCC4)c(Cl)cnc3[nH]2)cc1`: the pIC50 was 5.00 in experiment [3], 6.75 in [4] and 5.56 in experiment [5]. In addition, the Ratio IC50 in the experiment filed under Homo sapiens came out at 57.

Consider `COc1ccc(-c2nc3c(NCC4CCN(C)CC4)c(C(N)=O)cnc3[nH]2)cc1`, for which the results for the pIC50 in [3], in [4] and in [5] were 4.99, 6.01 and 5.35, respectively. Further, in the experiment listed under Homo sapiens, the Ratio IC50 is 10.

For the molecule `CNc1c(Cl)cnc2[nH]c(-c3ccc(OC)cc3)nc12`, the pIC50 in experiment [3], in [4] and in experiment [5] was less than 4.52 each time.

For the molecule `COc1ccc(-c2nc3c(N(C)CC4CCNCC4)c(Cl)cnc3[nH]2)cc1`, the pIC50 in experiment [3] is less than 4.52; in experiment [4], 6.06; in [5] it was less than 4.52. For the same molecule, the Ratio IC50 in the experiment listed under Homo sapiens is greater than 34.

Take `COc1ccc(-c2nc3c(NCCO)c(Cl)cnc3[nH]2)cc1`: the pIC50 in experiment [3] was less than 4.52; in experiment [4], 5.28; in experiment [5] it was less than 4.52. The Ratio IC50 in the experiment filed under Homo sapiens was determined as 2.

For the molecule `CN1CCC(CNc2c(Cl)cnc3[nH]c(-c4ccc(S(C)(=O)=O)cc4)nc23)CC1`, the results for the pIC50 in experiment [3], in [4] and in [5] were 5.56, 6.45 and 4.56, respectively. The Ratio IC50 in the experiment listed under Homo sapiens worked out at 8.

For the molecule `COc1ccc(F)c(-c2nc3c(NCC4CCNCC4)c(Cl)cnc3[nH]2)c1`, the pIC50 in experiment [7] was 7.12; in experiment [3] it was 4.88; at Aurora kinase B, 6.80; in [6], 7.12; in experiment [8] it was 4.94; in experiment [4] it was 7.31. For the same molecule, in experiment [5], the pIC50 was 5.21. In the experiment listed under Homo sapiens, the Ratio IC50 is 267.

For the molecule `COc1ccc(-c2nc3c(NCC4CCNCC4)c(Cl)cnc3[nH]2)c(F)c1`, the negative-log IC50 (pIC50) in experiment [3] is 4.93; in experiment [6], 7.47; in experiment [4] it was 6.97; in experiment [5], 5.16. Further, in the experiment filed under Homo sapiens, the Ratio IC50 was found to be 110.

On to `COc1ccc(-c2nc3c(NC4CCN(C)CC4)c(Cl)cnc3[nH]2)cc1`, for which the pIC50 in experiment [3] was 4.83; in experiment [4], 6.25; in experiment [5] it was 4.77. The Ratio IC50 in the experiment listed under Homo sapiens was found to be 27.

For the molecule `COc1ccc(-c2nc3c(NCC4CCN(C)CC4)c(C#N)cnc3[nH]2)cc1`, the figures for the pIC50 in experiment [3], in experiment [4] and in experiment [5] were less than 4.52, 5.35 and less than 4.52, respectively. Moreover, in the experiment filed under Homo sapiens, the Ratio IC50 was greater than 6.

As for `COc1ccc(-c2nc3c(NCC4CCNCC4)ccnc3[nH]2)cc1`, the pIC50 in experiment [3], in [4] and in experiment [5] was less than 4.52 each time.

With `COc1cccc(-c2nc3c(NCC4CCN(C)CC4)c(Cl)cnc3[nH]2)c1`, the negative logarithm of the IC50 (pIC50) in [3] was 4.79; in experiment [4], 6.56; in [5], less than 4.52. Also, in the experiment filed under Homo sapiens, the Ratio IC50 was found to be 59.

Take `COc1cc(F)c(-c2nc3c(NCC4CCNCC4)c(Cl)cnc3[nH]2)cc1F`: the pIC50 in experiment [3] was less than 4.77; in [6], 7.15; in [4] it was 6.76; in [5] it was 5.13. Besides, the Ratio IC50 in the experiment filed under Homo sapiens was greater than 99.

`COc1ccc(-c2nc3c(NCC4CCNCC4)c(Cl)cnc3[nH]2)cc1`: the pIC50 is 5.84 in experiment [3], 7.54 in experiment [6], 7.77 in experiment [4] and 5.95 in experiment [5]. The Ratio IC50 in the experiment listed under Homo sapiens came out at 85.

With `COc1ccc(-c2nc3c(NCC4CCN(C)CC4)c(Cl)cnc3[nH]2)c(C)c1`, the pIC50 in [3] was 5.57; in experiment [4] it was 7.44; in experiment [5] it was 5.18. Further, the Ratio IC50 in the experiment filed under Homo sapiens is 75.

Turning to `CN1CCC(CNc2c(Cl)cnc3[nH]c(-c4cccc(S(C)(=O)=O)c4)nc23)CC1`, the pIC50 in experiment [3] is less than 4.52; in experiment [4], 5.31; in experiment [5] it was less than 4.52. Moreover, in the experiment filed under Homo sapiens, the Ratio IC50 was greater than 6.

Regarding `COCCNc1c(Cl)cnc2[nH]c(-c3ccc(OC)cc3)nc12`, the negative-log IC50 (pIC50) in experiment [3] was less than 4.52; in [4], 5.68; in [5], less than 4.52. Besides, the Ratio IC50 in the experiment filed under Homo sapiens is greater than 14.

On to `COc1ccc(-c2nc3c(NCC4CCCNC4)c(Cl)cnc3[nH]2)cc1` (stereo not given), for which the pIC50 is 5.52 in experiment [3], 6.86 in experiment [4] and 5.24 in [5]. In the experiment filed under Homo sapiens, the Ratio IC50 was 22.

As to `COc1ccccc1-c1nc2c(NCC3CCN(C)CC3)c(Cl)cnc2[nH]1`, the values for the pIC50 in [3], in [4] and in experiment [5] were less than 4.52, 4.91 and less than 4.52, respectively. Moreover, the Ratio IC50 in the experiment listed under Homo sapiens was found to be 2.

Consider `COCCN1CCC(CNc2c(Cl)cnc3[nH]c(-c4ccc(OC)cc4)nc23)CC1`, for which the pIC50 in experiment [3] was less than 4.66; in experiment [4], 6.10; in experiment [5], less than 4.52. Moreover, the Ratio IC50 in the experiment listed under Homo sapiens is greater than 28.

As for `COc1ccc(-c2nc3c(NCC4CCN(C)CC4)c(Cl)cnc3[nH]2)cc1`, the pIC50 was 5.02 in [3], 6.50 in experiment [4] and less than 4.52 in experiment [5]. For the same molecule, the Ratio IC50 in the experiment filed under Homo sapiens stood at 30.

Consider `COc1ccc(-c2nc3c(NCC4CCNCC4)c(Cl)cnc3[nH]2)cc1OC`, for which the negative logarithm of the IC50 (pIC50) in experiment [7] is 7.24; in experiment [3] it was 5.64; at Aurora kinase B it was 7.80; in experiment [6] it was 7.06; in [8], 5.89; in experiment [4] it was 8.31. For the same molecule, in experiment [5], the negative logarithm of the IC50 (pIC50) is 5.92. The Ratio IC50 in the experiment listed under Homo sapiens was 463.

As for `COc1ccc(-c2nc3c(NC4CCN(C(C)=O)CC4)c(Cl)cnc3[nH]2)cc1`, the pIC50 in experiment [3], in experiment [4] and in experiment [5] was less than 4.52 in each case.
